Test results from patent publication US20080119571A1, “COMPOSITIONS AND METHODS TO ENHANCE REVERSE CHOLESTEROL TRANSPORT” (REDDY US THERAPEUTICS, INC., priority 2006, published 2008).
Entries after “also recorded” stand apart in the source; their conditions may differ.

Tests used:
SR-B1 [1] = experiment: SR-B1 gene expression in LDL-r null mouse liver, real time PCR; type: in vivo
Protocol: (§1) To determine if a test compound was capable of upregulating these three RCT pathway genes, LDL-r mice were treated with vehicle alone (control) or vehicle containing a defined amount of a test compound termed, “compound A”.
(§2) LDL-r mice were chosen because they are prone to develop atherosclerosis. After 7 days of treatment, the three RCT pathway genes were quantitated using real time PCR. […] Thus, compound A coordinately up regulated the three RCT pathway genes, namely ABCA1, LCAT, and SRB1.
(§3) This example illustrates the effect of compound A on HDL and the ABCA1, SR-B1 and LCAT genes associated with RCT in LDL-receptor (LDLr) null mice in a short term model.
(§4) Eight-weeks-old LDLr mice (Jackson Laboratories, Bar Harbor, Me.), were used for this Example. Mice were distributed into two groups of 8 mice each. One group received vehicle containing carboxymethyl cellulose and Tween-80 (Sigma Chemical Co.), and the other group received a daily dose of compound A at 25 mg/kg. […]
(§5) Next, liver and aorta samples from vehicle and compound A treated mice were removed, flash frozen in liquid nitrogen and subsequently used for RNA isolation. […] RNA was then verified and quantified using the Agilent RNA 600 Nano Assay Labchip® system, and real time PCR was performed to quantitate the gene expression of SR-B1, ABCA1 and LCAT using validated primer sets from SuperArray. […]

ABCA1 [2] = experiment: ABCA1 gene expression in LDL-r null mouse liver, real time PCR; type: in vivo
Protocol: as §1, §2, §3
Eight-weeks-old LDLr mice (Jackson Laboratories, Bar Harbor, Me.), were used for this Example. Mice were distributed into two groups of 8 mice each. […]
(§6) After one week, plasma samples were collected and used for HDL determination. Mice were euthanized by CO2, and aorta and liver samples were collected for RNA isolation.
as §5

LCAT = LCAT gene expression in LDL-r null mouse liver, real time PCR; type: in vivo
Protocol: as §1, §2, §3, §4, §5

[3] = Plasma HDL levels in LDLr null mice, short term model; type: in vivo, mouse; conditions: 7-day treatment
From the text: Upregulation of ABCA1 and LCAT also should result in the formation of HDL particles. Following 7-day treatment, compound A increased HDL levels by greater than 50% (FIG. 4).
as §3
Eight-weeks-old LDLr mice (Jackson Laboratories, Bar Harbor, Me.), were used for this Example. Mice were distributed into two groups of 8 mice each. One group received vehicle containing carboxymethyl cellulose and Tween-80 (Sigma Chemical Co.), and the other group received a daily dose of compound A at 25 mg/kg.
as §6

atherosclerotic lesions = experiment: Atherosclerotic lesion area in LDLr null mice on Western Diet, long term model; type: in vivo, mouse; conditions: high fat diet, 25 mg/kg daily, 16 weeks
From the text: The atheroprotective effects of HDL to a large extent are attributed to its ability to remove cholesterol from macrophages present in atherosclerotic lesions to transport them to liver for excretion into bile. LDLr null mice develop atherosclerosis when fed a high fat diet. […] This example illustrates the effect of compound A on HDL and atherosclerosis in LDLr null mice in a long term model. Eight-weeks-old LDLr null mice (Jackson Laboratories, Bar Harbor, Me.), were used for these studies. Two groups of 8 mice each received a Western Diet (Research Diet incorporated, New Brunswick, N.J.; D12079B containing 0.1% cholesterol) for 2 weeks. Plasma samples were collected and used for lipid analysis. Mice were then distributed into two groups, one group received vehicle containing carboxymethyl cellulose and Tween-80 (Sigma Chemical Co.), and the other group received a daily dose of compound A at 25 mg/kg. Both groups were continued on the Western Diet for another 16 weeks. At the end of the 16 weeks, the mice were euthanized by CO2, and whole aortas (from aortic sinus to the beginning of iliac aorta) were isolated, and fixed in 10% paraformaldehyde. […] Images of whole aortas were obtained by microscopic digital camera, and the lesion area was determined by computer-assisted morphometry (Image Pro, Media cybermetics) as percentages of coverage in whole aorta. […]

SR-B1 [4] = experiment: SR-B1 expression in normal animals (rat liver), real time PCR; type: in vivo
From the text: (§7) After 7 days of treatment RCT pathway genes were quantitated using real time PCR.

ABCA1 [5] = experiment: ABCA1 expression in normal animals (rat liver), real time PCR; type: in vivo
From the text: as §7

ABCA1 [6] = experiment: ABCA1 expression in HepG2 liver cells, real time PCR; type: cell-based, human; conditions: HepG2, treated overnight
Protocol: (§8) The hepatoma cell line HepG2 are frequently used as in vitro models of liver cells. They are easy to culture and retain many properties of liver cells including expression of various genes involved in lipid metabolism.
(§9) This example illustrates the effect of compound A on genes associated with RCT in HepG2 cells.
(§10) Human HepG2 cells were cultured in DMEM containing 4500 mg glucose/L (ATCC) supplemented with 10% fetal bovine serum (FBS), penicillin (100 U/ml), and streptomycin (100 μg/ml) in a humidified atmosphere (5% CO2 in air) at 37° C. Cells were plated onto 12 well dishes and cultured in low serum (0.5% FBS) for experiments. Cells were treated with either vehicle (DMSO) or the test compound overnight and used for RNA isolation. Briefly, cells were lysed in 300 uL of lysis buffer (Qiagen) and placed in the TissueLyser (Qiagen) for 3 minutes. Samples were then processed as described by the RNeasy mini kit. RNA was then verified and quantified using the Agilent RNA 600 Nano Assay Labchip® system, and real time PCR was performed to quantitate gene expression using validated primer sets from SuperArray. The results were illustrated in FIGS. 8-9.

SRB1 = SRB1 expression in HepG2 liver cells, real time PCR; type: cell-based, human; conditions: HepG2, treated overnight
Protocol: as §8, §9, §10

CAD = conditions: 4081 asymptomatic middle-aged men with primary dyslipidemia, 5 years; cited from earlier work
[7] = LDL-r mice, 10 and 25 mg/kg, 7 days of treatment, liver
[8] = normal animals, 10 and 25 mg/kg, 7 days of treatment

| SMILES | SRB1 expression in LDL-r null mouse liver (SR-B1 [1]) | increase in SR-B1 expression compared to vehicle treated animals (SR-B1 [1]; [7]) | ABCA1 expression in LDL-r null mouse liver (ABCA1 [2]) | increase in ABCA1 expression compared to vehicle treated animals (ABCA1 [2]; [7]) | LCAT expression in LDL-r null mouse liver (LCAT) | increase in LCAT expression (LCAT; LDL-r mice, 7 days of treatment, liver) | increase in HDL levels [3] | effect on atherosclerotic lesions (atherosclerotic lesions) | SRB1 expression in rat liver (SR-B1 [4]) | increase in SR-B1 expression compared to vehicle treated animals (SR-B1 [4]; [8]) | ABCA1 expression in rat liver (ABCA1 [5]) | increase in ABCA1 expression compared to vehicle treated animals (ABCA1 [5]; [8]) | ABCA1 expression in liver cells (ABCA1 [6]) | ABCA1 expression in liver cells (ABCA1 [6]; listed as compound of Formula I) | SRB1 expression in liver cells (SRB1) | decrease in CAD (CAD) |
| --- | --- | --- | --- | --- | --- | --- | --- | --- | --- | --- | --- | --- | --- | --- | --- | --- |
| CC(=O)c1ccc(Nc2nc(-c3ccccc3)cc(N3CCC(O)CC3)n2)cc1 [compound A] | induces | 2-2.5 fold | induces | 2-3 fold | induces | 30-90% | greater than 50% | inhibits atherosclerosis development; also recorded: significant decrease | induces | 2-4 fold | induces | 2-4 fold | induces | capable of increasing | capable of increasing |  |
| Cc1ccc(C)c(OCCCC(C)(C)C(=O)O)c1 [gemfibrozil] |  |  |  |  |  |  |  |  |  |  |  |  |  |  |  | 34% |
